≈ marks a conversion by molar mass, not a printed value. Where two headings read alike, the source gives them in different places. Where a SMILES comes first, the peptide text is derived from it. Bridges are numbered along the chain shown (N, C = ends). [ ]: non-standard residue; d: D form. The star is where a group is joined. X1 = CC[C@H](C)CCCCC(=O)*; Dab = NCC[C@H](N)C(=O)O
Assays:
A. baumannii ATCC19606 [1] = type: cell-based; settings: 37 °C, 18 h
From the text: The antimicrobial mechanism of colistin against bacteria has been attributed to the interaction between positively charged colistin and negatively charged outer membrane. Colistin could be displaced by divalent ions, such as calcium ions (Ca^2+) and magnesium (Mg^2+) in a competitively way. Moreover, elevated levels of divalent cations can enhance membrane rigidity, thereby reducing drug penetration and overall efficacy. To investigate the antimicrobial mechanism of T2–02, the competitive assays using divalent calcium ion were conducted. The elevated MICs of colistin were observed by adding Ca^2+ (2 to 32 μg/mL, Table S4).
As previously reported, the MIC values of T2–02 in conjunction with different chemical agents was estimated using the broth microdilution technique. Different concentrations of T2–02 were combined with Ca2+ separately, and the effect of chemical agents on T2–02 were tracked by observing variations in their MIC values. Each solution was added to a 96-well plate at the proper concentration in 100 μL volume. Next, 100 μL of the modified bacterial solution was added to each well. The absorbance was measured after incubation at 37 °C for 0 and 18 h.

HK-2 cells = assay: Cytotoxicity assay (MTT); type: cell-based
Experimental: (§1) We tested the cytotoxicity of several antibiotic compounds, including peptides and nanoparticles, on the human embryonic kidney cell lines HEK-293, HK-2, and […]. The cells were stored in DMEM medium and incubated at 37 °C with 5% CO2 in a humidifying environment. Using the MTT (methylthiazolyldiphenyl-tetrazolium bromide) test, cell viability was evaluated. Following a 5 × 10^3 cell/mL seeding in 96-well plates, the cells were exposed to 100 μL of samples at varying concentrations (12.5–200 μM) during 72 h at 37 °C. Later, each well is loaded with MTT solution (5 mg/mL in PBS) at a volume of 10 μL. The plates were left in the dark for 4 h. After forming formazan crystals due to the action of mitochondrial reductases in living cells, the crystals were dissolved using a solubilizing solution (pH 4.7, 40% dimethylformamide, 2% glacial acetic acid, and 16% sodium dodecyl sulfate) were shaken at 150 rpm and incubated for an hour at 37 °C. Using graphical plot analysis, the IC50 value–the concentration that results in 50% cell death–was obtained by measuring the absorbance of the dissolved formazan at 570 nm. The average of three independent tests, each carried out in triplicate, was used to display the results.

[2] = tested on: human red blood cells (RBCs); assay: Hemolysis assay; type: cell-based; settings: at 256 μg/mL, 2% hematocrit, 1 h, 37 °C, absorbance 540 nm, triplicate
Experimental: 5 . Hemolysis profiles of colistin, free T2–02, and T2–02-loaded liposomes. (A) Colistin, (B) free T2–02 peptide, and (C) T2–02-loaded liposomes (T2–02 Lipo) were incubated with human red blood cells (RBCs) at various concentrations (0–256 μg/mL) for 1 hour at 37 °C.
The hemolytic potential of colistin, T2–02, and T2–02 Lipo were assessed using a modified erythrocyte lysis assay. Briefly, fresh erythrocytes were washed twice with phosphate-buffered saline (PBS) and resuspended in 5% glucose solution to prepare a 2% hematocrit suspension. Aliquots (100 μL) of each test compound at varying concentrations were incubated with the erythrocyte suspension at 37 °C with gentle agitation (120 rpm) for 1 h. After incubation, samples were centrifuged at 700 × g for 10 min, and the supernatant was transferred to a 96-well microplate. The release of hemoglobin was quantified by measuring the absorbance at 540 nm. The percentage of hemolysis was calculated as follows: Hemolysis (%) = (OD of test sample – OD of negative control)/(OD of positive control-OD of negative control) × 100%. Each experiment was performed in triplicate, and data were expressed as mean ± standard deviation (SD).

E. coil ATCC25922 = type: cell-based, E. coli
Experimental: (§2) The broth microdilution procedure involves preparing CAMHB broth, a bacterial suspension adjusted to McFarland 0.5 (1.5 × 10^8 CFU/mL) and diluted 200×, and a drug solution at 2× the final target concentration. To achieve a 400× final bacterial dilution, add 100 μL of the drug at different doses to a 96-well plate, then 100 μL of the diluted bacterial culture. Measure the initial absorbance (0 h), incubate at 37 °C for 16–18 h, and measure the final absorbance. With no change in absorbance, the MIC signifies the absence of bacterial growth.

[3] = tested on: A. baumannii ATCC BAA-747; type: cell-based
Experimental: as §2

A. baumannii ATCC19606 [4] = type: cell-based
Experimental: as §2

E. faecalis ATCC 29212 = type: cell-based
Experimental: as §2

[5] = tested on: K. pneumoniae ATCC BAA-1705; type: cell-based
Experimental: as §2

[6] = tested on: K. pneumoniae ATCCC700603; type: cell-based
Experimental: as §2

P. aeruginosa ATCC27853 = type: cell-based
Experimental: as §2

S. aureus ATCC25923 = type: cell-based
Experimental: as §2

S. aureus ATCC29213 = type: cell-based
Experimental: as §2

S. aureus ATCC33592 = type: cell-based
Experimental: as §2

S. aureus ATCC700698 = type: cell-based
Experimental: as §2

HEK293 = type: cell-based, human; settings: 72 h
Experimental: as §1

Row | Molecule | Antibacterial activity (MIC), 20 mM CaCl2 (A. baumannii ATCC19606 [1]; in the presence of 20 mM CaCl2, broth microdilution) | Antibacterial activity (MIC), Control (A. baumannii ATCC19606 [1]; without CaCl2, broth microdilution) | Cytotoxicity HK-2 related to PMB (HK-2 cells; ratio of HK-2 IC50 to that of polymyxin B) | Hemolysis [2] | MIC (E. coil ATCC25922) | MIC [3] | MIC (A. baumannii ATCC19606 [4]) | MIC (E. faecalis ATCC 29212) | MIC [5] | MIC [6] | MIC (P. aeruginosa ATCC27853) | MIC (S. aureus ATCC25923) | MIC (S. aureus ATCC29213) | MIC (S. aureus ATCC33592) | MIC (S. aureus ATCC700698) | Cytotoxicity HK-2 related to PMB (HK-2 cells) | IC50 HEK293 (HEK293)
1 | CC[C@H](C)CCCCC(=O)N[C@@H](CCN)C(=O)N[C@H](C(=O)N[C@@H](CCN)C(=O)N[C@H]1CCNC(=O)[C@H]([C@@H](C)O)NC(=O)[C@H](CCN)NC(=O)[C@H](CCN)NC(=O)[C@H](CC(C)C)NC(=O)[C@@H](CC(C)C)NC(=O)[C@H](CCN)NC1=O)[C@@H](C)O [Colistin] (X1-[Dab]T[Dab][Dab][Dab][dL]L[Dab][Dab]T; lactam 4-C (inferred); N-terminus assumed) | 32 µg/mL | 2 µg/mL | 2.6 | ~45% |  |  |  |  |  |  |  |  |  |  |  |  | 
2 | CC[C@H](C)[C@H](NC(=O)[C@H](CC(=O)O)NC(=O)[C@H](CCCCN)NC(=O)[C@H](Cc1c[nH]c2ccccc12)NC(=O)[C@H](CC(C)C)NC(=O)[C@H](C)N)C(=O)N[C@@H](CC(C)C)C(=O)N[C@@H](CCCCN)C(=O)N[C@@H](CC(N)=O)C(=O)N[C@@H](C)C(=O)NCC(=O)N[C@@H](CCCCN)C(=O)N[C@@H](C)C(=O)N[C@@H](C)C(=O)N[C@@H](CC(C)C)C(=O)N[C@@H](CC(N)=O)C(=O)N[C@@H](CCC(=O)O)C(=O)N[C@H](C(=O)N[C@@H](CC(N)=O)C(=O)N[C@@H](CCC(N)=O)C(=O)N[C@@H](CC(C)C)C(=O)N[C@H](C(=O)N[C@@H](CC(N)=O)C(=O)NCC(=O)N[C@@H](CCCNC(=N)N)C(=O)NCC(=O)N[C@@H](CC(C)C)C(=O)N[C@@H](CCCCN)C(=O)N[C@@H](CCCCN)C(=O)O)C(C)C)[C@@H](C)CC [seq ID-1, reference compound] (H-ALWKDILKNAGKAALNEINQLVNGRGLKK-OH) |  |  |  |  | 64 µg/mL (≈ 20.1 µM) | 32 µg/mL (≈ 10.1 µM) | 32 µg/mL (≈ 10.1 µM) | 128 µg/mL (≈ 40.3 µM) | 128 µg/mL (≈ 40.3 µM) | 128 µg/mL (≈ 40.3 µM) | 32 µg/mL (≈ 10.1 µM) | 128 µg/mL (≈ 40.3 µM) | >512 µg/mL | >512 µg/mL | >512 µg/mL |  | 
3 | SPR 206 [reference compound] |  |  |  |  |  |  |  |  |  |  |  |  |  |  |  | 11.6 | 
4 | CC[C@H](C)[C@H](NC(=O)[C@H](CCC(=O)O)NC(=O)[C@H](CC(N)=O)NC(=O)[C@H](CC(C)C)NC(=O)[C@H](C)NC(=O)[C@H](C)NC(=O)[C@H](CCCCN)NC(=O)CNC(=O)[C@H](CCCNC(=N)N)NC(=O)[C@H](CCCNC(=N)N)NC(=O)[C@H](CCCCN)NC(=O)[C@H](CC(C)C)NC(=O)[C@H](CC(C)C)NC(=O)[C@H](CCCNC(=N)N)NC(=O)[C@H](CCCCN)NC(=O)[C@H](Cc1c[nH]c2ccccc12)NC(=O)[C@H](CC(C)C)NC(=O)[C@H](C)N)C(=O)N[C@@H](CC(N)=O)C(=O)N[C@@H](CCC(N)=O)C(=O)N[C@@H](CC(C)C)C(=O)O [T2–01] (H-ALWKRLLKRRGKAALNEINQL-OH) |  |  |  |  | >512 µg/mL | 64 µg/mL (≈ 25.7 µM) | 64 µg/mL (≈ 25.7 µM) | >512 µg/mL | >512 µg/mL | >512 µg/mL | 64 µg/mL (≈ 25.7 µM) | >512 µg/mL | 512 µg/mL (≈ 205 µM) | >512 µg/mL | >512 µg/mL |  | 
5 | CC[C@H](C)[C@H](NC(=O)[C@H](CCC(=O)O)NC(=O)[C@H](CC(N)=O)NC(=O)[C@H](CC(C)C)NC(=O)[C@H](C)NC(=O)[C@H](C)NC(=O)[C@H](CCCCN)NC(=O)CNC(=O)[C@H](C)NC(=O)[C@H](CC(N)=O)NC(=O)[C@H](CCCCN)NC(=O)[C@H](CC(C)C)NC(=O)[C@@H](NC(=O)[C@H](CC(=O)O)NC(=O)[C@H](CCCCN)NC(=O)[C@H](Cc1c[nH]c2ccccc12)NC(=O)[C@H](CC(C)C)NC(=O)[C@H](C)N)[C@@H](C)CC)C(=O)N[C@@H](CC(N)=O)C(=O)N[C@@H](CCC(N)=O)C(=O)N[C@@H](CC(C)C)C(=O)O [T2] (H-ALWKDILKNAGKAALNEINQL-OH) |  |  |  |  | >1024 µg/mL | 8 µg/mL (≈ 3.44 µM) | 8 µg/mL (≈ 3.44 µM) | 1024 µg/mL (≈ 441 µM) | >1024 µg/mL | >512 µg/mL | 8 µg/mL (≈ 3.44 µM) | 1024 µg/mL (≈ 441 µM) | >512 µg/mL | >512 µg/mL | >512 µg/mL |  | >1024 µg/mL

From publication PMC12284850, “In Silico Design of Antimicrobial Peptides against Carbapenem-Resistant Infections with Enhanced Activity by Nanoformulation” (ACS Applied Bio Materials, 2025)
